Measurements taken from patent publication US7405228B2, “Antibacterial cyano-(substituted)-methylenepiperidinophenyl oxazolidinones targeting multiple ribonucleoprotein sites” (Wockhardt Limited, priority 2002, dated 2008).

SMILES | melting point [°C]
CCOC(=O)c1cn(C[C@H]2CN(c3ccc(N4CCC(C(C#N)CO)CC4)c(F)c3)C(=O)O2)nn1 (stereo partly drawn) [Example 151, (S)-1-{3-[4-(4-(1-cyano-2-hydroxy)-ethylpiperidin-1-yl)-3-fluorophenyl]-2-oxo-oxazolidin-5-ylmethyl}-4-ethoxycarbonyl-1,2,3-triazole] | 170 to 172
N#CC=C1CCN(c2ccc(N3C[C@H](CNC(=O)CO)OC3=O)cc2F)CC1 [Example 13, (S)-N-{3-[4-(4-cyanomethylidene-piperidin-1-yl)-3-fluorophenyl]-2-oxo-oxazolidin-5-ylmethyl}-2-hydroxyacetamide] | 68 to 70
CC(=O)NC[C@H]1CN(c2ccc(N3CCC(=C(C)C#N)CC3)cc2)C(=O)O1 [Example 72, (S)-N-{3-[4-(4-(1-cyanoethylidene)-piperidin-1-yl)-phenyl]-2-oxo-oxazolidin-5-ylmethyl}-acetamide] | 94 to 96
CS(=O)(=O)OC[C@H]1CN(c2ccc(N3CCC(=CC#N)CC3)c(F)c2)C(=O)O1 [Example 54, (R)-{3-[4-(4-cyanomethylidene-piperidin-1-yl)-3-fluorophenyl]-2-oxo-oxazolidin-5-ylmethyl}-methanesulphonate] | 126 to 128
CC(=O)NC[C@H]1CN(c2ccc(N3CC/C(=C(/C)C#N)C(F)C3)c(F)c2)C(=O)O1 (stereo partly drawn) [Example 85, (S)-N-{3-[4-(4-(1-cyanoethylidene)-3-fluoropiperidin-1-yl)-3-fluorophenyl]-2-oxo-oxazolidin-5-ylmethyl}-acetamide] | 148 to 150
CC(=O)NC[C@H]1CN(c2ccc(N3CC/C(=C\C#N)C(C)C3)c(F)c2)C(=O)O1 (stereo partly drawn) [Example 63, (S)-N-{3-[4-(4-cyanomethylidene-3-methylpiperidin-1-yl)-3-fluorophenyl]-2-oxo-oxazolidin-5-ylmethyl}-acetamide] | 152 to 153
CC(=O)NC[C@H]1CN(c2ccc(N3CC/C(=C/C#N)C(C)(C)C3)c(F)c2)C(=O)O1 [Example 70, (S)-N-{3-[4-(4-cyanomethylidene-3,3-dimethylpiperidin-1-yl)-3-fluorophenyl]-2-oxo-oxazolidin-5-ylmethyl}-acetamide] | 150 to 152
CC(C#N)=C1CCN(c2ccc(N3C[C@H](COc4ccon4)OC3=O)cc2F)CC1 [Example 83, (R)-3-{3-[4-(4-(1-cyanoethylidene)-piperidin-1-yl)-3-fluorophenyl]-2-oxo-oxazolidin-5-ylmethyloxy}-iso-oxazole] | 137 to 138
CC(=O)NC[C@H]1CN(c2ccc(N3CCC(C(C#N)COS(C)(=O)=O)CC3)c(F)c2)C(=O)O1 (stereo partly drawn) [Example 134, (S)-N-{3-[4-(4-(1-cyano-2-methanesulphonyloxy)-ethylpiperidin-1-yl)-3-fluorophenyl]-2-oxo-oxazolidin-5-ylmethyl}-acetamide] | 136 to 138
CC(=O)NC[C@H]1CN(c2ccc(N3CCC(=C(C#N)n4ccnc4)CC3)c(F)c2)C(=O)O1 [Example 102, (S)-N-{3-[4-(4-(1-cyano-1-(imidazol-1-yl)-methylidene)-piperidin-1-yl)-3-fluorophenyl]-2-oxo-oxazolidin-5-ylmethyl}-acetamide] | 196 to 198
CC(C#N)=C1CCN(c2ccc(N3C[C@H](CO)OC3=O)cc2F)CC1 [Example 82, (R)-{3-[4-(4-(1-cyanoethylidene)-piperidin-1-yl)-3-fluorophenyl]-2-oxo-oxazolidin-5-ylmethyl}-alcohol] | 100 to 102
N#CC=C1CCN(c2ccc(N3C[C@H](CNC(=O)CC#N)OC3=O)cc2F)CC1 [Example 23, (S)-N-{3-[4-(4-cyanomethylidene-piperidin-1-yl)-3-fluorophenyl]-2-oxo-oxazolidin-5-ylmethyl}-2-cyanoacetamide] | 150 to 152
CS(=O)(=O)OC[C@H]1CN(c2ccc(N3CCC(C(C#N)C(=O)O)CC3)c(F)c2)C(=O)O1 (stereo partly drawn) [Example 155, (R)-{3-[4-(4-(1-Cyano-1-hydroxycarbonyl)-methylpiperidin-1-yl)-3-fluorophenyl]-2-oxo-oxazolidin-5-ylmethyl}-methanesulphonate] | 108 to 110
N#CC(CO)C1CCN(c2ccc(N3C[C@H](COc4ccon4)OC3=O)cc2F)CC1 (stereo partly drawn) [Example 153, (R)-3-{3-[4-(4-(1-cyano-2-hydroxy)-ethylpiperidin-1-yl)-3-fluorophenyl]-2-oxo-oxazolidin-5-ylmethyloxy}-iso-oxazole] | 146 to 148
CC(=O)NC[C@H]1CN(c2ccc(N3CCC(C(C#N)n4ccnc4)CC3)c(F)c2)C(=O)O1 (stereo partly drawn) [Example 136, (S)-N-{3-[4-(4-(1-cyano-1-(imidazol-1-yl))-methylpiperidin-1-yl)-3-fluorophenyl]-2-oxo-oxazolidin-5-ylmethyl}-acetamide] | 210 to 212
CC(=O)NC[C@H]1CN(c2ccc(N3CC=C(CC#N)C(C)C3)c(F)c2)C(=O)O1 (stereo partly drawn) [Example 161, (S)-N-{3-[4-(4-cyanomethyl-3-methyl-4,5-dehydropiperidin-1-yl)-3-fluorophenyl]-2-oxo-oxazolidin-5-ylmethyl}-acetamide] | 149 to 150
N#CC=C1CCN(c2ccc(N3C[C@H](CNC(=O)C(F)F)OC3=O)cc2F)CC1 [Example 29, (S)-N-{3-[4-(4-cyanomethylidene-piperidin-1-yl)-3-fluorophenyl]-2-oxo-oxazolidin-5-ylmethyl}-difluoroacetamide] | 162 to 164
N#CC=C1CCN(c2ccc(N3C[C@H](CNC(=O)CBr)OC3=O)cc2F)CC1 [Example 34, (S)-N-{3-[4-(4-cyanomethylidene-piperidin-1-yl)-3-fluorophenyl]-2-oxo-oxazolidin-5-ylmethyl}-bromoacetamide] | 160 to 162
N#CC=C1CCN(c2ccc(N3CC(CN=[N+]=[N-])OC3=O)cc2)CC1 (stereo in doubt) [Example 1, (S)-{3-[4-(4-cyanomethylidene-piperidin-1-yl)-phenyl]-2-oxo-oxazolidin-5-ylmethyl}-azide] | 80 to 82
CCC(C#N)=C1CCN(c2ccc(N3C[C@H](CNC(=O)C(Cl)(Cl)Cl)OC3=O)cc2F)CC1 [Example 91, (S)-N-{3-[4-(4-(1-cyanopropylidene)-piperidin-1-yl)-3-fluorophenyl]-2-oxo-oxazolidin-5-ylmethyl}-trichloroacetamide] | 150 to 152
CC(=O)NC[C@H]1CN(c2ccc(N3CCC(=C(C#N)CCO)CC3)c(F)c2)C(=O)O1 [Example 113, (S)-N-{3-[4-(4-(1-cyano-3-hydroxy-propylidene)-piperidin-1-yl)-3-fluorophenyl]-2-oxo-oxazolidin-5-ylmethyl}-acetamide] | 192 to 194
N#CC=C1CCN(c2ccc(N3C[C@H](CN=C=O)OC3=O)cc2F)CC1 (stereo in doubt) | 172 to 174
N#CCC1CCN(c2ccc(N3CC(CN=[N+]=[N-])OC3=O)cc2)CC1 (stereo in doubt) [Example 122, (S)-{3-[4-(4-cyanomethyl-piperidin-1-yl)-phenyl]-2-oxo-oxazolidin-5-ylmethyl}-azide] | 85 to 86
CC(C)(C)C(=O)OCC(=O)NC[C@H]1CN(c2ccc(N3CCC(=CC#N)CC3)c(F)c2)C(=O)O1 [Example 14, (S)-N-{3-[4-(4-cyanomethylidene-piperidin-1-yl)-3-fluorophenyl]-2-oxo-oxazolidin-5-ylmethyl}-2-pivolyloxyacetamide] | 91 to 93
